Measurements: US8680012B2, “4-phenyl-pyrane-3,5-diones,4-phenyl-thiopyrane-3,6-diones and cyclohexanetriones as novel herbicides” (Syngenta Crop Protection LLC, priority 2006, dated 2014)

Each molecule was assayed on Alopecurus myosuroides (ALOMY) (assay: Example A pre-emergence herbicidal activity, glasshouse pot test). Settings: 480 h, rate 500 g/ha, evaluated 20 days after spraying, read-out: Pre-emergence activity ALOMY (100=total damage to plant; 0=no damage to plant).
Format: in vivo
Method: (§1) Seeds of a variety of test species were sown in standard soil in pots. After cultivation for one day (pre-emergence) or after 10 days cultivation (post-emergence) under controlled conditions in a glasshouse, the plants were sprayed with an aqueous spray solution derived from the formulation of the technical active ingredient in 0.6 ml acetone and 45 ml formulation solution containing 10.6% Emulsogen EL (Registry number 61791-12-6), 42.2% N-methylpyrrolidone, 42.2% dipropylene glycol monomethyl ether (Registry number 34590-94-8) and 0.2% X-77 (Registry number 11097-66-8). The test plants were then grown in a greenhouse under optimum conditions until, 15 days later for post-emergence and 20 days for pre-emergence, the test was evaluated (100=total damage to plant; 0=no damage to plant).
(§2) Alopecurus myosuroides (ALOMY), Avena fatua (AVEFA), Lolium perenne (LOLPE), Setaria faberi (SETFA), Digitaria sanguinalis (DIGSA), Echinochloa crus-galli (ECHCG)

First: CCc1ccc(-c2ccc(Cl)cc2)cc1C1=C(O)C(C)(C)SC(C)(C)C1=O [Compound C-1]
Second: CCCCC(=O)OC1=C(c2cc(-c3ccc(Cl)cc3)ccc2CC)C(=O)C(C)(C)OC1(C)C [Compound D-2]
The pest or weed control at 500 g/ha of the first is lower: 20% for the first, 30% for the second.

The molecules below were run on Avena fatua (AVEFA) in the same assay as above. Settings: 480 h, rate 500 g/ha, evaluated 20 days after spraying, read-out: Pre-emergence activity AVEFA (100=total damage to plant; 0=no damage to plant).
Format: in vivo
Method: as §1, §2

First: CCc1ccc(-c2ccc(Cl)cc2)cc1C1=C(O)C(C)(C)SC(C)(C)C1=O [Compound C-1]
Second: CCCCC(=O)OC1=C(c2cc(-c3ccc(Cl)cc3)ccc2CC)C(=O)C(C)(C)OC1(C)C [Compound D-2]
The pest or weed control at 500 g/ha of the first is lower: 20% for the first, 60% for the second.

These molecules were tested on Digitaria sanguinalis (DIGSA) in the same assay as above. Settings: 480 h, rate 500 g/ha, evaluated 20 days after spraying, read-out: Pre-emergence activity DIGSA (100=total damage to plant; 0=no damage to plant).
Format: in vivo
Method: as §1, §2

Compared with `CCc1ccc(-c2ccc(Cl)cc2)cc1C1=C(O)C(C)(C)SC(C)(C)C1=O` [Compound C-1], `CCCCC(=O)OC1=C(c2cc(-c3ccc(Cl)cc3)ccc2CC)C(=O)C(C)(C)OC1(C)C` [Compound D-2] is higher in pest or weed control at 500 g/ha: 30% for the first, 100% for the second.

The molecules below were run on Echinochloa crus-galli (ECHCG) in the same assay as above. Settings: 480 h, rate 500 g/ha, evaluated 20 days after spraying, read-out: Pre-emergence activity ECHCG (100=total damage to plant; 0=no damage to plant).
Format: in vivo
Method: as §1, §2

Going from `CCc1ccc(-c2ccc(Cl)cc2)cc1C1=C(O)C(C)(C)SC(C)(C)C1=O` [Compound C-1] to `CCCCC(=O)OC1=C(c2cc(-c3ccc(Cl)cc3)ccc2CC)C(=O)C(C)(C)OC1(C)C` [Compound D-2], the pest or weed control at 500 g/ha rises from 50% to 80%.

Each molecule was assayed on Lolium perenne (LOLPE) in the same assay as above. Settings: 480 h, rate 500 g/ha, evaluated 20 days after spraying, read-out: Pre-emergence activity LOLPE (100=total damage to plant; 0=no damage to plant).
Format: in vivo
Method: as §1, §2

Going from `CCc1ccc(-c2ccc(Cl)cc2)cc1C1=C(O)C(C)(C)SC(C)(C)C1=O` [Compound C-1] to `CCCCC(=O)OC1=C(c2cc(-c3ccc(Cl)cc3)ccc2CC)C(=O)C(C)(C)OC1(C)C` [Compound D-2], the pest or weed control at 500 g/ha rises from 30% to 80%.

What follows are molecules tested on Setaria faberi (SETFA) in the same assay as above. Settings: 480 h, rate 500 g/ha, evaluated 20 days after spraying, read-out: Pre-emergence activity SETFA (100=total damage to plant; 0=no damage to plant).
Format: in vivo
Method: as §1, §2

First: CCc1ccc(-c2ccc(Cl)cc2)cc1C1=C(O)C(C)(C)SC(C)(C)C1=O [Compound C-1]
Second: CCCCC(=O)OC1=C(c2cc(-c3ccc(Cl)cc3)ccc2CC)C(=O)C(C)(C)OC1(C)C [Compound D-2]
The pest or weed control at 500 g/ha of the first is lower: 30% for the first, 100% for the second.

What follows are molecules tested on Alopecurus myosuroides (ALOMY) (assay: Example A post-emergence herbicidal activity, glasshouse pot test). Settings: 360 h, rate 125 g/ha, evaluated 15 days after spraying, read-out: Post-emergence activity ALOMY (100=total damage to plant; 0=no damage to plant).
Format: in vivo
Method: as §1, §2

Compared with `CCc1ccc(-c2ccc(Cl)cc2)cc1C1=C(O)C(C)(C)SC(C)(C)C1=O` [Compound C-1], `CCCCC(=O)OC1=C(c2cc(-c3ccc(Cl)cc3)ccc2CC)C(=O)C(C)(C)OC1(C)C` [Compound D-2] is lower in pest or weed control at 125 g/ha: 50% for the first, 20% for the second.

These molecules were tested on Avena fatua (AVEFA) in the same assay as above. Settings: 360 h, rate 125 g/ha, evaluated 15 days after spraying, read-out: Post-emergence activity AVEFA (100=total damage to plant; 0=no damage to plant).
Format: in vivo
Method: as §1, §2

First: CCc1ccc(-c2ccc(Cl)cc2)cc1C1=C(O)C(C)(C)SC(C)(C)C1=O [Compound C-1]
Second: CCCCC(=O)OC1=C(c2cc(-c3ccc(Cl)cc3)ccc2CC)C(=O)C(C)(C)OC1(C)C [Compound D-2]
The pest or weed control at 125 g/ha of the first is higher: 70% for the first, 10% for the second.

The molecules below were run on Digitaria sanguinalis (DIGSA) in the same assay as above. Settings: 360 h, rate 125 g/ha, evaluated 15 days after spraying, read-out: Post-emergence activity DIGSA (100=total damage to plant; 0=no damage to plant).
Format: in vivo
Method: as §1, §2

First: CCc1ccc(-c2ccc(Cl)cc2)cc1C1=C(O)C(C)(C)SC(C)(C)C1=O [Compound C-1]
Second: CCCCC(=O)OC1=C(c2cc(-c3ccc(Cl)cc3)ccc2CC)C(=O)C(C)(C)OC1(C)C [Compound D-2]
The pest or weed control at 125 g/ha of the first is higher: 100% for the first, 90% for the second.

What follows are molecules tested on Echinochloa crus-galli (ECHCG) in the same assay as above. Settings: 360 h, rate 125 g/ha, evaluated 15 days after spraying, read-out: Post-emergence activity ECHCG (100=total damage to plant; 0=no damage to plant).
Format: in vivo
Method: as §1, §2

Compared with `CCc1ccc(-c2ccc(Cl)cc2)cc1C1=C(O)C(C)(C)SC(C)(C)C1=O` [Compound C-1], `CCCCC(=O)OC1=C(c2cc(-c3ccc(Cl)cc3)ccc2CC)C(=O)C(C)(C)OC1(C)C` [Compound D-2] is lower in pest or weed control at 125 g/ha: 100% for the first, 90% for the second.

These molecules were tested on Lolium perenne (LOLPE) in the same assay as above. Settings: 360 h, rate 125 g/ha, evaluated 15 days after spraying, read-out: Post-emergence activity LOLPE (100=total damage to plant; 0=no damage to plant).
Format: in vivo
Method: as §1, §2

First: CCc1ccc(-c2ccc(Cl)cc2)cc1C1=C(O)C(C)(C)SC(C)(C)C1=O [Compound C-1]
Second: CCCCC(=O)OC1=C(c2cc(-c3ccc(Cl)cc3)ccc2CC)C(=O)C(C)(C)OC1(C)C [Compound D-2]
The pest or weed control at 125 g/ha of the first is higher: 30% for the first, 20% for the second.

The molecules below were run on Setaria faberi (SETFA) in the same assay as above. Settings: 360 h, rate 125 g/ha, evaluated 15 days after spraying, read-out: Post-emergence activity SETFA (100=total damage to plant; 0=no damage to plant).
Format: in vivo
Method: as §1, §2

Going from `CCc1ccc(-c2ccc(Cl)cc2)cc1C1=C(O)C(C)(C)SC(C)(C)C1=O` [Compound C-1] to `CCCCC(=O)OC1=C(c2cc(-c3ccc(Cl)cc3)ccc2CC)C(=O)C(C)(C)OC1(C)C` [Compound D-2], the pest or weed control at 125 g/ha rises from 80% to 90%.
